Test results reported in patent publication US7786155B2, “Organic compounds” (Novartis AG, priority 2007, dated 2010).

Target: T1, recombinant human NPY Y2 receptors (Homo sapiens, UniProt P49146)
T1 construct: expressed in transfected cells; host or cells: CHO-C4 cells (membrane preparation)
T1 sequence (P49146 1-381): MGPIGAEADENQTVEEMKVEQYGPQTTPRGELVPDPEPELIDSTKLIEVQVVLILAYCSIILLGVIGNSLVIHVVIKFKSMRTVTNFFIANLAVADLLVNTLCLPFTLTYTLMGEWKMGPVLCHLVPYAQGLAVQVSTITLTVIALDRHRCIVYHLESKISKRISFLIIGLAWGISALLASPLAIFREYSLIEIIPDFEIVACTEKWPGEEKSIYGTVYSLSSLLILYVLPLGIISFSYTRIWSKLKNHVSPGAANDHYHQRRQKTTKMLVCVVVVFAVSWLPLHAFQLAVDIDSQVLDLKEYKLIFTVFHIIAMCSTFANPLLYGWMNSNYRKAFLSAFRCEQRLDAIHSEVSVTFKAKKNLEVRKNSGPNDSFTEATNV
Assay: Scintillation proximity [35S]GTPγS binding assay (inhibition of 0.5 nM NPY-stimulated [35S]GTPγS binding)
Format: biochemical
Conditions: 10 μM compound, membranes from CHO-C4 cells expressing recombinant human NPY Y2 receptors
Protocol: Preparation of Membranes: CHO-C4 cells expressing recombinant human NPY Y2 receptors were used to prepare membranes for the GTPγS assay. Cells were grown to 80-95% confluency on 15-cm (225 cm^2) tissue culture plates. After aspiration of the culture medium, cells were washed twice with 18 ml ice-cold phosphate-buffered saline (PBS), scraped off and suspended in 3 ml ice-cold PBS in pre-cooled centrifuge tubes. The dishes were rinsed with 2 ml ice-old PBS per dish and the washings were combined with the PBS cell suspension from above. Cells pooled from 5-7 dishes were centrifuged for 5 min at 10,000 rpm (12,000 g) in a Sorvall RC5B centrifuge using an SS34 rotor at […]. The cell pellet was resuspended in 5 ml ice-cold buffer (20 mM HEPES, 10 mM EDTA; pH 7.4) by vortexing (2-5 sec), homogenized using a Polytron (step 4 for 20-30 sec), and ice-cold buffer added to 25 ml. The suspension was centrifuged again for 20 min at 18,000 rpm (39,000 g) at 4° C. and the pellet resuspended in 5 ml ice-cold buffer (20 mM HEPES, 0.1 mM EDTA; pH 7.4) by vortexing (2-5 sec), homogenized with a Polytron (step 4 for 10 sec), and ice-cold buffer added to 25 ml. The suspension was centrifuged a third time for 20 min at 18,000 rpm (39,000 g) at 4° C. The pellet was resuspend in 1 ml ice-cold buffer (20 mM Hepes, 0.1 mM EDTA; pH 7.4) by vortexing (5-8 sec). Two to five resuspended pellets were combined and homogenized using a Polytron (step 4 for 15-25 sec). A small aliquot (20-50 μl) was removed for protein determination by the Coomassie Plus Protein Assay Reagent (Pierce) using BSA as standard. The membrane suspension was aliquoted in precooled (on dry ice) Eppendorf tubes (0.25-1 ml/tube affording approximately 0.5-2 mg of membrane protein/tube). The pellets were frozen and stored at −80° C.
Scintillation proximity [^35S]GTPγS binding assay: Frozen membranes from CHO-C4 cells expressing recombinant human NPY Y2 receptors (2 mg for four 96-well plates) were thawed on ice. Thawed membranes were pipetted into 10 ml of assay buffer (20 mM HEPES, 10 mM MgCl2, 100 mM NaCl, pH 7.4) and homogenized briefly using a Polytron. The final assay mixture was prepared in 96-well microtiter plates (Isoplate Wallac, Perkin Elmer). The composition of the assay mixtures in a final volume of 250 μl per well was as follows: 20 mM HEPES, 10 mM MgCl2, 100 mM NaCl, pH 7.4, 30 μM GDP, 1 mg/ml BSA (added fresh), 5 μg membrane protein, 1.5 mg Wheatgerm agglutinin SPA beads (Amersham), 0.45 nM [^35S]GTPγS (Amersham, SJ1308, 1000 Ci/mmol, stabilized solution), and the test compounds (agonists and/or antagonists) at the appropriate concentrations. The samples were incubated at room temperature for 90 min by shaking, after which the SPA beads were sedimented by centrifugation in an Eppendorf 5804 centrifuge at 2700 rpm for 10 min at room temperature. After 60 min the plates were counted in a TopCount (Canberra). Basal [^35S]GTPγS binding was measured in the absence of agonist (NPY). Non-specific binding was measured in the presence of excess (10 μM) unlabelled GTPγS (Sigma). Nonspecific binding never exceeded 10% of basal binding and was thus not subtracted from the experimental data. Antagonists were tested for the inhibition of 0.5 nM NPY-stimulated [^35S]GTPγS binding. Antagonist inhibition curves were analyzed by non-linear regression using GraphPad Prism software (Version 4.0, GraphPad Software Inc., CA, USA).
Antagonistic activity of compounds of the present invention was examined by the Scintillation proximity [^35S]GTPγS binding assay as described above (inhibition of 0.5 nM NPY-stimulated [^35S]GTPγS binding). The table below represents percentages of inhibition at a concentration of 10 μM.

Row | [%] inhibiton at 10 μM | SMILES
1 | 87% | CCCC1(c2ccc(F)cc2)N=C(C)N(CC(=O)c2ccc(NC(=O)Cc3c(C)noc3C)cc2F)C1=O (racemic) [Compound 17]
2 | 70% | CCCC1(c2ccc(F)cc2)N=C(C)N(CC(=O)c2ccc(N(C)C(=O)N(C)c3c(C)noc3C)cc2F)C1=O (racemic) [Compound 18]
3 | 92% | CCCC1(c2ccccc2)N=C(C)N(CC(=O)c2ccc(NC(=O)C(CC)CC)cc2)C1=O (single isomer, unassigned; (+)) [Compound 25]
4 | 75% | CCCC1(c2ccc(F)cc2)N=C(C)N(CC(=O)c2ccc(NC(=O)Cc3c(C)noc3C)cc2F)C1=O (single isomer, unassigned; (+)) [Compound 36, (+)-2-(3,5-Dimethyl-isoxazol-4-yl)-N-(3-fluoro-4-{2-[4-(4-fluoro-phenyl)-2-methyl-5-oxo-4-propyl-4,5-dihydro-imidazol-1-yl]-acetyl}-phenyl)-acetamide]
5 | 39% | CCCC1(c2ccc(F)cc2)N=C(C)N(CC(=O)c2ccc(NC(=O)C3CCOC3)cc2F)C1=O (stereo not drawn) [Compound 14, Tetrahydro-furan-3-carboxylic acid (34-fluoro-4-{2-[4-(4-fluoro-phenyl)-2-methyl-5-oxo-propyl-4,5-dihydro-imidazol-1-yl]-acetyl}-phenyl)-amide]

Same assay, conditions: 10 μM compound, membranes from CHO-C4 cells expressing recombinant human NPY Y2 receptors, read-out: [%] inhibiton at 10 μM

Row | inhibition at 10 µM | SMILES
6 | 45% | CCC(CC)C(=O)Nc1ccc(C(O)CN2C(=O)C(c3ccccc3)(c3ccccc3)N=C2C)cc1 (racemic) [Compound 26, (+/−)-2-Ethyl-N-{4-[1-hydroxy-2-(2-methyl-5-oxo-4,4-diphenyl-4,5-dihydro-imidazol-1-yl)-ethyl]-phenyl}-butyramide]
7 | 92% | CCCC1(c2ccc(F)cc2)N=C(C)N(CC(=O)c2ccc(NC(=O)Cc3c(C)noc3C)cc2F)C1=O (single isomer, unassigned; (-)) [Compound 35, (−)-2-(3,5-Dimethyl-isoxazol-4-yl)-N-(3-fluoro-4-{2-[4-(4-fluoro-phenyl)-2-methyl-5-oxo-4-propyl-4,5-dihydro-imidazol-1-yl]-acetyl}-phenyl)acetamide]
8 | 42% | CCCC1(c2ccccc2)N=C(C)N(CC(=O)c2ccc(NC(=O)C3CCOC3)cc2F)C1=O (stereo not drawn) [Compound 15, Tetrahydro-furan-3-carboxylic acid {3-fluoro-4-[2-(2-methyl-5-oxo-4-phenyl-4-propyl-4,5-dihydro-imidazol-1yl)-acetyl]-phenyl}-amide]
9 | 28% | CCCC1(c2ccc(F)cc2)N=C(C)N(CC(=O)c2ccc(NC(=O)C3CCOC3)cc2)C1=O (stereo not drawn) [Compound 16, Tetrahydro-furan-3-carboxylic acid (4-{2-[4-(4-fluoro-phenyl)-2-methyl-5-oxo-4-propyl-4,5-dihydro-imidazol-1-yl]-acetyl}-phenyl)-amide]
10 | 61% | CC1=NC(c2ccccc2)(c2ccccc2)C(=O)N1CC(=O)c1ccc(NC(=O)c2ccccc2F)cc1 [Compound 21, 2-Fluoro-N-{4-[2-(2-methyl-5-oxo-4,4-diphenyl-4,5-dihydro-imidazol-1-yl)-acetyl]-phenyl}-benzamide]
11 | 55% | CC1=NC(c2ccccc2)(c2ccccc2)C(=O)N1CC(=O)c1ccc(NC(=O)Cc2ccccc2C)cc1 [Compound 22, N-{4-[2-(2-Methyl-5-oxo-4,4-diphenyl-4,5-dihydro-imidazol-1-yl)-acetyl]-phenyl}-2-o-tolyl-acetamide]
12 | 46% | COc1ccccc1C(=O)Nc1ccc(C(=O)CN2C(=O)C(c3ccccc3)(c3ccccc3)N=C2C)cc1 [Compound 23, 2-Methoxy-N-{4-[2-(2-methyl-5-oxo-4,4-diphenyl-4,5-dihydro-imidazol-1-yl)-acetyl]-phenyl}-benzamide]
13 | 100% | CC1=NC(c2ccccc2)(c2ccccc2)C(=O)N1CC(=O)c1ccc(NC(=O)Nc2c(C)noc2C)cc1 [Compound 27, 1-(3,5-Dimethyl-isoxazol-4-yl)-3-{4-[2-(2-methyl-5-oxo-4,4-diphenyl-4,5-dihydro-imidazol-1-yl)-acetyl]-phenyl}-urea]

More lines, now with the values behind:

Row | SMILES | inhibition at 10 µM
14 | CC1=NC(c2ccccc2)(c2ccccc2)C(=O)N1CC(=O)c1ccc(C(=O)NC(C)C(C)C)cc1 (racemic) [Compound 1, (+/−)-N-(1,2-Dimethyl-propyl)-4-[2-(2-methyl-5-oxo-4,4-diphenyl-4,5-dihydro-imidazol-1-yl)-acetyl]-benzamide] | 34%
15 | CCCC1(c2ccccc2)N=C(C)N(CC(=O)c2ccc(NC(=O)Nc3c(C)noc3C)cc2)C1=O (racemic) [Compound 6, (+/−)-1-(3,5-Dimethyl-isoxazol-4-yl)-3-{4-[2-(2-methyl-5-oxo-4-phenyl-4-propyl-4,5-dihydro-imidazol-1-yl)-acetyl]-phenyl}-urea] | 99%
16 | CCCC1(c2ccc(F)cc2)N=C(C)N(CC(=O)c2ccc(NC(=O)Nc3c(C)noc3C)cc2)C1=O (racemic) [Compound 7, (+/−)-1-(3,5-Dimethyl-isoxazol-4-yl)-3-(4-{2-[4-(4-fluoro-phenyl)-2-methyl-5-oxo-4-propyl-4,5-dihydro-imidazol-1-yl]-acetyl}-phenyl)urea] | 91%
17 | CCCC1(c2ccc(F)cc2)N=C(C)N(CC(=O)c2ccc(NC(=O)C(CC)CC)cc2)C1=O (racemic) [Compound 9, (+/−)-2-Ethyl-N-(4-{2-[4-(4-fluoro-phenyl)-2-methyl-5-oxo-4-propyl-4,5-dihydro-imidazol-1-yl]-acetyl}-phenyl)-butyramide] | 68%
18 | CCCC1(c2ccccc2)N=C(C)N(CC(=O)c2ccc(NC(=O)Nc3c(C)noc3C)cc2F)C1=O (racemic) [Compound 10, (+/−)-1-(3,5-Dimethyl-isoxazol-4-yl)-3-{3-fluoro-4-[2-(2-methyl-5-oxo-4-phenyl-4-propyl-4,5-dihydro-imidazol-1-yl)-acetyl]-phenyl}-urea] | 97%
19 | CCCC1(c2ccc(F)cc2)N=C(C)N(CC(=O)c2ccc(NC(=O)Nc3c(C)noc3C)cc2F)C1=O (racemic) [Compound 11, (+/−)-1-(3,5-Dimethyl-isoxazol-4-yl)-3-(3-fluoro-4-{2-[4-(4-fluoro-phenyl)-2-methyl-5-oxo-4-propyl-4,5-dihydro-imidazol-1-yl]acetyl}-phenyl)-urea] | 96%
20 | CCC(CC)C(=O)Nc1ccc(CCN2C(=O)C(c3ccccc3)(c3ccccc3)N=C2C)cc1 [Compound 4, 2-Ethyl-N-{4-[2-(2-methyl-5-oxo-4,4-diphenyl-4,5-dihydro-imidazol-1-yl)ethyl]-phenyl}-butyramide] | 46%
21 | CC1=NC(c2ccccc2)(c2ccccc2)C(=O)N1CCc1ccc(NC(=O)CC(C)C)cc1 [Compound 5, 3-Methyl-N-{4-[2-(2-methyl-5-oxo-4,4-diphenyl-4,5-dihydro-imidazol-1-yl)-ethyl]-phenyl}-butyramide] | 35%
